Results: patent publication US20100285959A1, “HERBICIDAL MIXTURES” (priority 2006, published 2010)
Like-named read-outs stand apart in the source and are kept apart here.

Columns and labels:
mixed hardwoods (MXDSP) = assay: Test 13 field trial, postemergence, brush weeds; type: in vivo, Nyssa sylvatica, Acer rubrum, Liquidambar styraciflua; conditions: 56 DAA; g a.i./ha: Cpd 2 250; Fosamine-ammonium 6700
Description: (§1) Plots were established in non-crop land and were 6.1 m long by 3.0 m wide. […] Treatments were applied postemergence to the brush weeds using a backpack sprayer delivering a spray volume of 468 L/ha using a pressure of 241 kPa. […] All treatments also included a surfactant. […] Results are the means of the three replicates.

oak species (QUESS) = assay: Test 13 field trial, postemergence, brush weeds; type: in vivo, Quercus L. spp.; conditions: 56 DAA; g a.i./ha: Cpd 2 250; Fosamine-ammonium 6700
Description: as §1

corn (ZEAMD) [1] = tested on: corn (ZEAMD); design: species or system Zea mays ssp. indentata; conditions: in vivo
Procedure: (§2) A greenhouse test was conducted to evaluate the effects of Compounds 1 and 2, applied preemergence, on the plant species corn (ZEAMD, Zea mays ssp. indentata) and wheat (TRZAW, Triticum aestivum L.) grown from seed treated with and without naphthalic anhydride. Naphthalic anhydride was applied at a rate of 1% wt/wt basis to corn and wheat seed. Seed treatments were made as follows for evaluations of the chemical materials employed. One-hundred grams of each crop seed were placed in a separate self-closing plastic bag to which 1 gram of the chemical material was added. The bag containing the seed was tightly closed and gently agitated thereby allowing the seed to slowly come in contact with the chemical material to achieve maximal distribution on the seed surface, arriving at a uniform coverage. Treatment rate comparisons between spray application and seed treatment materials were made on the calculated area rate of naphthalic anhydride in grams active ingredient per hectare for a given crop. These rates were calculated based on a typical seeding rate per hectare used for agronomic production of a given crop. For wheat, a typical average seeding rate is 200 wheat seeds per square meter which weigh 6.8 g. For corn, a typical average seeding rate is 7.5 corn seeds per square meter which weigh 2.0 g. […] Corn treatments were replicated three times. Wheat treatments were replicated two times. […]

wheat (TRZAW) = tested on: wheat (TRZAW); design: species or system Triticum aestivum; conditions: in vivo
Procedure: as §2

[2] = tested on: common lambsquarters (CHEAL); assay: Test 3 field trial, emerged weeds before corn planting; type: in vivo, Chenopodium album; conditions: 68 DAA; Cpd 2 100, glyphosate 1540, paraquat 1150 g a.i./ha, alone or combined
Description: (§3) Corn seeds (hybrid ‘Pioneer 33J56’) were planted in early spring season, 3.8 cm deep in a silt loam soil having 2.4% organic matter and a pH of 6. Plots were 6.1 m long by 2.7 m wide with rows spaced 91.4 cm apart. The field was managed using no-till practices. […] Compound 2 and paraquat treatments, alone and in combination, also included a surfactant. Glyphosate, alone and with Compound 2, included ammonium sulfate in the treatment mixture. […] The effects on the weeds in the treated plots and untreated control plots were recorded 30, 42, 46 and 68 days after application. Most of the weed species could not be evaluated at every timing. Corn response was not evaluated because the growth was highly variable depending on the efficacy of the weed control treatments. […] Results are the means of the three replicates.

giant ragweed (AMBTR) = assay: Test 9 field trial, emerged weeds before corn planting; type: in vivo, Ambrosia trifida; conditions: g a.i./ha: Cpd 2 100, Glyphosate 1540, Paraquat 1150
Procedure: (§4) Corn seeds (hybrid ‘Pioneer 34M91 RR’) were planted in mid spring season, about 3.8 cm deep in a silty clay loam soil having a pH of 6.7. Plots were 9.1 m long by 3.0 m. The field was managed using no-till practices. […] Compound 2 and paraquat treatments, alone and in combination, also included a surfactant. Glyphosate, alone and with Compound 2, included ammonium sulfate in the treatment mixture. […] The effects on the weeds in the treated plots and untreated control plots were recorded 7, 14, 23, 30 and 57 days after application. Most of the weed species could not be evaluated at every timing. Corn response was only evaluated 57 days after application. […] Results are the means of the three replicates.

Canada horseweed (ERICA) = assay: as above; type: in vivo, Erigeron canadensis; conditions: g a.i./ha: Cpd 2 100, Glyphosate 1540, Paraquat 1150
Procedure: as §4

shepherd's purse (CAPBP) = assay: as above; type: in vivo, Capsella bursa-pastoris; conditions: g a.i./ha: Cpd 2 100, Glyphosate 1540, Paraquat 1150
Procedure: as §4

giant foxtail (SETFA) = assay: Test 3 field trial, emerged weeds before corn planting; type: in vivo, Setaria faberi; conditions: 68 DAA; Cpd 2 100, glyphosate 1540, paraquat 1150 g a.i./ha, alone or combined
Description: as §3

[3] = tested on: henbit deadnettle (LAMAM); assay: Test 9 field trial, emerged weeds before corn planting; type: in vivo, Lamium amplexicaule; conditions: g a.i./ha: Cpd 2 100, Glyphosate 1540, Paraquat 1150
Procedure: as §4

common dandelion (TAROF) = assay: as above; type: in vivo, Taraxacum officinale; conditions: g a.i./ha: Cpd 2 100, Glyphosate 1540, Paraquat 1150
Procedure: as §4

common chickweed (STEME) [4] = assay: Test 3 field trial, emerged weeds before corn planting; type: in vivo, Stellaria media; conditions: Cpd 2 100, glyphosate 1540, paraquat 1150 g a.i./ha, alone or combined
Description: as §3

bushy wallflower (ERYRE) = assay: Test 9 field trial, emerged weeds before corn planting; type: in vivo, Erysimum repandum; conditions: g a.i./ha: Cpd 2 100, Glyphosate 1540, Paraquat 1150
Procedure: as §4

corn (ZEAMD) [5] = assay: as above; type: in vivo, Zea mays ssp. indentata; conditions: 57 DAA; g a.i./ha: Cpd 2 100, Glyphosate 1540, Paraquat 1150
Procedure: as §4

[6] = tested on: Virginia pepperweed (LEPVI); assay: Test 3 field trial, emerged weeds before corn planting; type: in vivo, Lepidium virginicum; conditions: Cpd 2 100, glyphosate 1540, paraquat 1150 g a.i./ha, alone or combined
Description: as §3

[7] = tested on: smallflower buttercup (RANAB); assay: Test 9 field trial, emerged weeds before corn planting; type: in vivo, Ranunculus abortivus; conditions: g a.i./ha: Cpd 2 100, Glyphosate 1540, Paraquat 1150
Procedure: as §4

red deadnettle (LAMPU) [8] = assay: Test 3 field trial, emerged weeds before corn planting; type: in vivo, Lamium purpureum; conditions: Cpd 2 100, glyphosate 1540, paraquat 1150 g a.i./ha, alone or combined
Description: as §3

prickly lettuce (LACSE) = assay: Test 9 field trial, emerged weeds before corn planting; type: in vivo, Lactuca serriola; conditions: g a.i./ha: Cpd 2 100, Glyphosate 1540, Paraquat 1150
Procedure: as §4

[9] = tested on: common lambsquarters (CHEAL); assay: as above; type: in vivo, Chenopodium album; conditions: 57 DAA; g a.i./ha: Cpd 2 100, Glyphosate 1540, Paraquat 1150
Procedure: as §4

common chickweed (STEME) [10] = assay: as above; type: in vivo, Stellaria media; conditions: g a.i./ha: Cpd 2 100, Glyphosate 1540, Paraquat 1150
Procedure: as §4

red deadnettle (LAMPU) [11] = assay: as above; type: in vivo, Lamium purpureum; conditions: g a.i./ha: Cpd 2 100, Glyphosate 1540, Paraquat 1150
Procedure: as §4

curly dock (RUMCR) = assay: Test 3 field trial, emerged weeds before corn planting; type: in vivo, Rumex crispus; conditions: Cpd 2 100, glyphosate 1540, paraquat 1150 g a.i./ha, alone or combined
Description: as §3

CCOP(=O)(O)C(N)=O [Fosamine-ammonium, fosamine-ammonium, reference compound]
MXDSP Obs (mixed hardwoods (MXDSP)): 47 | QUESS Obs (oak species (QUESS)): 33

O=C1OC(=O)c2cccc3cccc1c23 [Naphthalic anhydride]
ZEAMD Obs (corn (ZEAMD) [1]): 0 | TRZAW Obs (wheat (TRZAW)): 0

C[n+]1ccc(-c2cc[n+](C)cc2)cc1 [Paraquat]
CHEAL Obs [2]: 0% | AMBTR Obs (giant ragweed (AMBTR); 7 DAA): 100% | AMBTR Obs (giant ragweed (AMBTR); 14 DAA): 100% | AMBTR Obs (giant ragweed (AMBTR); 57 DAA): 70% | ERICA Obs (Canada horseweed (ERICA); 7 DAA): 95% | ERICA Obs (Canada horseweed (ERICA); 14 DAA): 96% | ERICA Obs (Canada horseweed (ERICA); 23 DAA): 99% | ERICA Obs (Canada horseweed (ERICA); 30 DAA): 100% | ERICA Obs (Canada horseweed (ERICA); 57 DAA): 81% | CAPBP Obs (shepherd's purse (CAPBP); 7 DAA): 89% | CAPBP Obs (shepherd's purse (CAPBP); 14 DAA): 85% | CAPBP Obs (shepherd's purse (CAPBP); 23 DAA): 77% | CAPBP Obs (shepherd's purse (CAPBP); 30 DAA): 72% | CAPBP Obs (shepherd's purse (CAPBP); 57 DAA): 93% | SETFA Obs (giant foxtail (SETFA)): 0% | LAMAM Obs ([3]; 7 DAA): 93% | LAMAM Obs ([3]; 14 DAA): 84% | LAMAM Obs ([3]; 23 DAA): 85% | LAMAM Obs ([3]; 30 DAA): 73% | LAMAM Obs ([3]; 57 DAA): 81% | TAROF Obs (common dandelion (TAROF); 7 DAA): 79% | TAROF Obs (common dandelion (TAROF); 14 DAA): 69% | TAROF Obs (common dandelion (TAROF); 23 DAA): 61% | TAROF Obs (common dandelion (TAROF); 30 DAA): 33% | TAROF Obs (common dandelion (TAROF); 57 DAA): 0% | STEME Obs (common chickweed (STEME) [4]; 30 DAA): 96% | STEME Obs (common chickweed (STEME) [4]; 42 DAA): 97% | STEME Obs (common chickweed (STEME) [4]; 46 DAA): 88% | ERYRE Obs (bushy wallflower (ERYRE); 7 DAA): 98% | ERYRE Obs (bushy wallflower (ERYRE); 14 DAA): 94% | ERYRE Obs (bushy wallflower (ERYRE); 23 DAA): 98% | ERYRE Obs (bushy wallflower (ERYRE); 30 DAA): 100% | ERYRE Obs (bushy wallflower (ERYRE); 57 DAA): 80% | ZEAMD Obs (corn (ZEAMD) [5]): 0% | LEPVI Obs ([6]; 30 DAA): 100% | LEPVI Obs ([6]; 42 DAA): 96% | LEPVI Obs ([6]; 46 DAA): 100% | RANAB Obs ([7]; 7 DAA): 98% | RANAB Obs ([7]; 14 DAA): 100% | RANAB Obs ([7]; 23 DAA): 100% | RANAB Obs ([7]; 30 DAA): 100% | LAMPU Obs (red deadnettle (LAMPU) [8]; 30 DAA): 100% | LAMPU Obs (red deadnettle (LAMPU) [8]; 42 DAA): 98% | LAMPU Obs (red deadnettle (LAMPU) [8]; 46 DAA): 100% | LACSE Obs (prickly lettuce (LACSE); 7 DAA): 97% | LACSE Obs (prickly lettuce (LACSE); 14 DAA): 95% | LACSE Obs (prickly lettuce (LACSE); 23 DAA): 100% | LACSE Obs (prickly lettuce (LACSE); 30 DAA): 100% | LACSE Obs (prickly lettuce (LACSE); 57 DAA): 100% | CHEAL Obs [9]: 0% | STEME Obs (common chickweed (STEME) [10]; 7 DAA): 99% | STEME Obs (common chickweed (STEME) [10]; 14 DAA): 99% | STEME Obs (common chickweed (STEME) [10]; 23 DAA): 100% | STEME Obs (common chickweed (STEME) [10]; 30 DAA): 100% | STEME Obs (common chickweed (STEME) [10]; 57 DAA): 98% | LAMPU Obs (red deadnettle (LAMPU) [11]; 7 DAA): 79% | LAMPU Obs (red deadnettle (LAMPU) [11]; 14 DAA): 80% | LAMPU Obs (red deadnettle (LAMPU) [11]; 23 DAA): 81% | LAMPU Obs (red deadnettle (LAMPU) [11]; 30 DAA): 70% | RUMCR Obs (curly dock (RUMCR); 30 DAA): 58% | RUMCR Obs (curly dock (RUMCR); 42 DAA): 58% | RUMCR Obs (curly dock (RUMCR); 46 DAA): 13% | RUMCR Obs (curly dock (RUMCR); 68 DAA): 15%
